This passage reports IC50 results from US20250171459A1, “2-METHYL-4',5'-DIHYDROSPIRO[PIPERIDINE-4,7'-THIENO[2,3-C]PYRAN] DERIVATIVES AS INHIBITORS OF APOL1 AND METHODS OF USING SAME” (Vertex Pharmaceuticals Incorporated, priority 2022, published 2025).

The target of this experiment is T1, APOL1 (Homo sapiens, UniProt O14791).
T1 sequence (O14791 1-398 S342G/I384M): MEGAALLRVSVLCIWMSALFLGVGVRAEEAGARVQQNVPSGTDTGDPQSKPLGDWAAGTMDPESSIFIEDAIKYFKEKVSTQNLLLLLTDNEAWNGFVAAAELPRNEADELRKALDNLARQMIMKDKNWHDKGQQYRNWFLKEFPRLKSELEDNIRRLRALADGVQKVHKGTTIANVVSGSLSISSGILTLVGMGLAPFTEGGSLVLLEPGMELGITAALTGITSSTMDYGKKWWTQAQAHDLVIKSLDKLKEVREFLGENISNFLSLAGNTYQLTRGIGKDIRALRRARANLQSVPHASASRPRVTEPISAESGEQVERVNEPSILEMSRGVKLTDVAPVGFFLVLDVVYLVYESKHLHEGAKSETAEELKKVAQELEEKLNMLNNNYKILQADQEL
As to the kind of experiment: MultiTox-Fluor Multiplex Cytotoxicity Assay in tet-inducible APOL1 T-REx-HEK293 cells (cell rescue, ratio of dead to live cells). Type of experiment: cell-based. The conditions noted are these: tet-inducible transgenic APOL1 T-REx-HEK293 cell lines, 50 ng/mL tet, 24 hours; read-out: IP50 (i.e., IC50 for cell proliferation). In short, it runs like this: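 T-REx-HEK293 cells with tet-inducible APOL1 were treated with compound (10 μM top, 10-point 3-fold dilution, duplicate) plus 50 ng/mL tetracycline for 24 h at 37° C, in DMEM with 2% tet-free FBS. MultiTox-Fluor protease signals gave a dead/live ratio, normalized to no tet (100% viability) and tet alone (0%).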

Regarding `C[C@H]1C[C@@]2(CCN1Cc1cnn(CC(O)CO)c1)OCCc1c2sc(C(F)(F)F)c1CO` (stereo partly shown) [Compound 934], the IC50 is below 100 nM.

As to `C[C@H]1C[C@@]2(CCN1Cc1cnn(CC(O)C3(CO)CCC3)c1)OCCc1c2sc(C(F)(F)F)c1CO` (stereo partly shown) [Compound 935], the IC50 was below 100 nM.

For `C[C@H]1C[C@@]2(CCN1Cc1cnn(CC(C)(O)CO)c1)OCCc1c2sc(C(F)(F)F)c1CO` (stereo partly shown) [Compound 936], the IC50 is below 100 nM.

Take `C[C@H]1C[C@@]2(CCN1Cc1cnn(CC(O)c3ccc(F)cn3)c1)OCCc1c2sc(C(F)(F)F)c1CO` (stereo partly shown) [Compound 937]: the IC50 is below 100 nM.

With `C[C@H]1C[C@@]2(CCN1Cc1cnn(CC(O)CC(C)(O)C3CC3)c1)OCCc1c2sc(C(F)(F)F)c1CO` (stereo partly shown) [Compound 938], the IC50 is below 100 nM.

As for `C[C@H]1C[C@@]2(CCN1Cc1cnn(CC(O)c3ccccn3)c1)OCCc1c2sc(C(F)(F)F)c1CO` (stereo partly shown) [Compound 939], the IC50 was below 100 nM.

Take `C[C@H]1C[C@@]2(CCN1Cc1cnn(CC(O)C3(O)CCC3)c1)OCCc1c2sc(C(F)(F)F)c1CO` (stereo partly shown) [Compound 940]: the IC50 is below 100 nM.

In the case of `C[C@H]1C[C@@]2(CCN1Cc1cnn(CC(O)C3(O)CCOC3)c1)OCCc1c2sc(C(F)(F)F)c1CO` (stereo partly shown) [Compound 941], the IC50 was below 100 nM.

On to `C[C@H]1C[C@@]2(CCN1Cc1cnn(CC(O)CC3(O)CCOC3)c1)OCCc1c2sc(C(F)(F)F)c1CO` (stereo partly shown) [Compound 942], for which the IC50 is below 100 nM.

For the molecule `C[C@H]1C[C@@]2(CCN1Cc1cnn(CC3(O)CCOCC3)c1)OCCc1c2sc(C(F)(F)F)c1CO` [Compound 943, 4-[[4-[[(2′S, 7R)-3-(hydroxymethyl)-2′-methyl-2-(trifluoromethyl)spiro[4,5-dihydrothieno[2,3-c]pyran-7,4′-piperidine]-1′-yl]methyl]pyrazol-1-yl]methyl]tetrahydropyran-4-ol], the IC50 was below 100 nM.

Turning to `C[C@H]1C[C@@]2(CCN1Cc1cnn(CC(O)C3CCC3)c1)OCCc1c2sc(C(F)(F)F)c1CO` (stereo partly shown) [Compound 944], the IC50 was below 100 nM.

As for `C[C@H]1C[C@@]2(CCN1Cc1cnn(CC(O)CC3(O)COC3)c1)OCCc1c2sc(C(F)(F)F)c1CO` (stereo partly shown) [Compound 945], the IC50 was below 100 nM.

As for `C[C@H]1C[C@@]2(CCN1Cc1cnn(CC(O)C3CCCOC3)c1)OCCc1c2sc(C(F)(F)F)c1CO` (stereo partly shown) [Compound 946], the IC50 is below 100 nM.

In the case of `C[C@H]1C[C@@]2(CCN1Cc1cnn(CC3(O)CCS(=O)(=O)CC3)c1)OCCc1c2sc(C(F)(F)F)c1CO` [Compound 947], the IC50 is below 100 nM.

Regarding `C[C@H]1C[C@@]2(CCN1Cc1cnn(CC3(O)CCC3)c1)OCCc1c2sc(C(F)(F)F)c1CO` [Compound 948], the IC50 is below 100 nM.

For `C[C@H]1C[C@@]2(CCN1Cc1cnn(CC(O)CC(C)(C)O)c1)OCCc1c2sc(C(F)(F)F)c1CO` (stereo partly shown) [Compound 949], the IC50 is below 100 nM.

Consider `C[C@H]1C[C@@]2(CCN1Cc1cnn(CC(O)CC3(C#N)CC3)c1)OCCc1c2sc(C(F)(F)F)c1CO` (stereo partly shown) [Compound 950], for which the IC50 is below 100 nM.

As to `C[C@H]1C[C@@]2(CCN1Cc1cnn(CC3(O)CCOC3=O)c1)OCCc1c2sc(C(F)(F)F)c1CO` (stereo partly shown) [Compound 951], the IC50 lay in the range of 500 to 1000 nM.

`C[C@H]1C[C@@]2(CCN1Cc1cnn(CC3(O)CCCOC3)c1)OCCc1c2sc(C(F)(F)F)c1CO` (stereo partly shown) [Compound 952]: the IC50 was below 100 nM.

On to `C[C@H]1C[C@@]2(CCN1Cc1cnn(CC(C)(O)C(F)F)c1)OCCc1c2sc(C(F)(F)F)c1CO` (stereo partly shown) [Compound 953], for which the IC50 is below 100 nM.

On to `C[C@H]1C[C@@]2(CCN1Cc1cnn(CC3(O)CC(C#N)C3)c1)OCCc1c2sc(C(F)(F)F)c1CO` (stereo partly shown) [Compound 954], for which the IC50 is below 100 nM.

Consider `C[C@H]1C[C@@]2(CCN1Cc1cnn(CC(O)C3(O)CCCC3)c1)OCCc1c2sc(C(F)(F)F)c1CO` (stereo partly shown) [Compound 955], for which the IC50 is below 100 nM.

For `CC(C)OC[C@@H](O)Cn1cc(CN2CC[C@]3(C[C@@H]2C)OCCc2c3sc(C(F)(F)F)c2CO)cn1` [Compound 956], the IC50 is below 100 nM.

`CCOCCC(O)Cn1cc(CN2CC[C@]3(C[C@@H]2C)OCCc2c3sc(C(F)(F)F)c2CO)cn1` (stereo partly shown) [Compound 957]: the IC50 is below 100 nM.

In the case of `COCC(O)Cn1cc(CN2CC[C@]3(C[C@@H]2C)OCCc2c3sc(C(F)(F)F)c2CO)cn1` (stereo partly shown) [Compound 958], the IC50 was below 100 nM.

`C[C@H]1C[C@@]2(CCN1Cc1cnn(CC(O)C3CCOCC3)c1)OCCc1c2sc(C(F)(F)F)c1CO` (stereo partly shown) [Compound 959]: the IC50 was below 100 nM.

Turning to `C[C@H]1C[C@@]2(CCN1Cc1cnn(CC(O)C(C)(C)O)c1)OCCc1c2sc(C(F)(F)F)c1CO` (stereo partly shown) [Compound 960], the IC50 is below 100 nM.

Turning to `C[C@H]1C[C@@]2(CCN1Cc1cnn(CC(O)CC3(O)CCC3)c1)OCCc1c2sc(C(F)(F)F)c1CO` (stereo partly shown) [Compound 961], the IC50 is below 100 nM.

Take `C[C@H]1C[C@@]2(CCN1Cc1cnn(CC(O)CC3(O)CCCC3)c1)OCCc1c2sc(C(F)(F)F)c1CO` (stereo partly shown) [Compound 962]: the IC50 is below 100 nM.

`C[C@H]1C[C@@]2(CCN1Cc1cnn(CC(O)CC(C)(C)C#N)c1)OCCc1c2sc(C(F)(F)F)c1CO` (stereo partly shown) [Compound 963]: the IC50 is below 100 nM.

As to `C[C@H]1C[C@@]2(CCN1Cc1cnn(CC(O)C3CCCO3)c1)OCCc1c2sc(C(F)(F)F)c1CO` (stereo partly shown) [Compound 964], the IC50 is below 100 nM.

In the case of `C[C@H]1C[C@@]2(CCN1Cc1cnn(CC(O)c3ccnn3C)c1)OCCc1c2sc(C(F)(F)F)c1CO` (stereo partly shown) [Compound 965], the IC50 is below 100 nM.

Consider `COCCOCC(O)Cn1cc(CN2CC[C@]3(C[C@@H]2C)OCCc2c3sc(C(F)(F)F)c2CO)cn1` (stereo partly shown) [Compound 966], for which the IC50 is below 100 nM.

As to `COCCC(O)Cn1cc(CN2CC[C@]3(C[C@@H]2C)OCCc2c3sc(C(F)(F)F)c2CO)cn1` (stereo partly shown) [Compound 967], the IC50 was below 100 nM.

Regarding `C[C@H]1C[C@@]2(CCN1Cc1cnn(C[C@H](O)CO)c1)OC[C@@H](O)c1cc(C(F)(F)F)sc12` [Compound 968], the IC50 was below 100 nM.

As for `C[C@H]1C[C@@]2(CCN1Cc1cnn(C[C@@H](O)CO)c1)OC[C@@H](O)c1cc(C(F)(F)F)sc12` [Compound 969], the IC50 is below 100 nM.

With `C[C@H]1C[C@@]2(CCN1Cc1cnn(CC(O)C(N)=O)c1)OC[C@@H](O)c1cc(C(F)(F)F)sc12` (stereo partly shown) [Compound 970], the IC50 is below 100 nM.

For `C[C@H]1C[C@@]2(CCN1Cc1cnn(CC(O)C3(O)CCOC3)c1)OC[C@@H](O)c1cc(C(F)(F)F)sc12` (stereo partly shown) [Compound 971], the IC50 was below 100 nM.

As for `C[C@H]1C[C@@]2(CCN1Cc1cnn(CC(C)(O)CO)c1)OC[C@@H](O)c1cc(C(F)(F)F)sc12` (stereo partly shown) [Compound 972], the IC50 was below 100 nM.

On to `C[C@H]1C[C@@]2(CCN1Cc1cnn(CC(O)CC3(C#N)CC3)c1)OC[C@@H](O)c1cc(C(F)(F)F)sc12` (stereo partly shown) [Compound 973], for which the IC50 was below 100 nM.

Turning to `C[C@H]1C[C@@]2(CCN1Cc1cnn(CC3(O)CCS(=O)(=O)CC3)c1)OC[C@@H](O)c1cc(C(F)(F)F)sc12` [Compound 974], the IC50 is below 100 nM.

Turning to `C[C@H]1C[C@@]2(CCN1Cc1cnn(CC(O)CC3(O)COC3)c1)OC[C@@H](O)c1cc(C(F)(F)F)sc12` (stereo partly shown) [Compound 975], the IC50 is below 100 nM.

As for `C[C@H]1C[C@@]2(CCN1Cc1cnn(CC(O)CC3(O)CCC3)c1)OC[C@@H](O)c1cc(C(F)(F)F)sc12` (stereo partly shown) [Compound 976], the IC50 is below 100 nM.

Turning to `C[C@H]1C[C@@]2(CCN1Cc1cnn(CC(O)CC(C)(C)O)c1)OC[C@@H](O)c1cc(C(F)(F)F)sc12` (stereo partly shown) [Compound 977], the IC50 was below 100 nM.

For `C[C@H]1C[C@@]2(CCN1Cc1cnn(CC(O)C3(O)CCOCC3)c1)OC[C@@H](O)c1cc(C(F)(F)F)sc12` (stereo partly shown) [Compound 978], the IC50 was below 100 nM.

Consider `C[C@H]1C[C@@]2(CCN1Cc1cnn(CC(O)C3(O)CCC3)c1)OC[C@@H](O)c1cc(C(F)(F)F)sc12` (stereo partly shown) [Compound 979], for which the IC50 was below 100 nM.

For `CC(=CC(O)Cn1cc(CN2CC[C@]3(C[C@@H]2C)OC[C@@H](O)c2cc(C(F)(F)F)sc23)cn1)C1CC1` (stereo partly shown) [Compound 980], the IC50 fell in the range of 100 to 500 nM.

Regarding `C[C@H]1C[C@@]2(CCN1Cc1cnn(CC3CC4(CC4)C(=O)O3)c1)OCCc1c2sc(C(F)(F)F)c1CO` (stereo partly shown) [Compound 981], the IC50 was below 100 nM.

As to `C[C@H]1C[C@@]2(CCN1Cc1cnn(CC3CC4(CCC4)C(=O)O3)c1)OCCc1c2sc(C(F)(F)F)c1CO` (stereo partly shown) [Compound 982], the IC50 was below 100 nM.

Take `C[C@H]1C[C@@]2(CCN1Cc1cnn(CC3CC(C)(C)C(=O)O3)c1)OCCc1c2sc(C(F)(F)F)c1CO` (stereo partly shown) [Compound 983]: the IC50 is below 100 nM.

Take `C[C@H]1C[C@@]2(CCN1Cc1cnn(CC3CC4(CCOCC4)C(=O)O3)c1)OCCc1c2sc(C(F)(F)F)c1CO` (stereo partly shown) [Compound 984]: the IC50 is below 100 nM.

As for `C[C@H]1C[C@@]2(CCN1Cc1cnn(C[C@@H](O)C(N)=O)c1)OCCc1c2sc(C(F)(F)F)c1CO` [Compound 985, (2R)-2-hydroxy-3-[4-[[(2′S, 7R)-3-(hydroxymethyl)-2′-methyl-2-(trifluoromethyl)spiro[4,5-dihydrothieno[2,3-c]pyran-7,4′-piperidine]-1′-yl]methyl]pyrazol-1-yl]propanamide], the IC50 was below 100 nM.
